Results on 20 compounds are retold here after paper PMC10077450 (ACS Omega, 2023).

One may read the inhibition as the relative decrease from the control value, in per cent. The IC50 is the concentration that gives 50% inhibition. A higher IC50 goes with weaker potency.

Experiment [1] has as its target butyryl cholinesterase (BChE) (Homo sapiens, UniProt P06276). As to the kind of experiment: butyryl cholinesterase inhibition assay. The class given is biochemical. The following applies: for inhibition at 500 µM: read-out: BChE inhibition (%) at 0.5 mM; for activity against BChE enzyme (in words): compared with eserine.
Another experiment concerns the target α-glucosidase (Saccharomyces cerevisiae, UniProt P53341). The following applies: for activity against α-glucosidase enzyme (in words): compared with acarbose.

“Also recorded” adds a separate entry of the source. Marks after values point to notes of the source that are not given here.

Chain of butyryl cholinesterase (BChE) (P06276 29-602, species assumed): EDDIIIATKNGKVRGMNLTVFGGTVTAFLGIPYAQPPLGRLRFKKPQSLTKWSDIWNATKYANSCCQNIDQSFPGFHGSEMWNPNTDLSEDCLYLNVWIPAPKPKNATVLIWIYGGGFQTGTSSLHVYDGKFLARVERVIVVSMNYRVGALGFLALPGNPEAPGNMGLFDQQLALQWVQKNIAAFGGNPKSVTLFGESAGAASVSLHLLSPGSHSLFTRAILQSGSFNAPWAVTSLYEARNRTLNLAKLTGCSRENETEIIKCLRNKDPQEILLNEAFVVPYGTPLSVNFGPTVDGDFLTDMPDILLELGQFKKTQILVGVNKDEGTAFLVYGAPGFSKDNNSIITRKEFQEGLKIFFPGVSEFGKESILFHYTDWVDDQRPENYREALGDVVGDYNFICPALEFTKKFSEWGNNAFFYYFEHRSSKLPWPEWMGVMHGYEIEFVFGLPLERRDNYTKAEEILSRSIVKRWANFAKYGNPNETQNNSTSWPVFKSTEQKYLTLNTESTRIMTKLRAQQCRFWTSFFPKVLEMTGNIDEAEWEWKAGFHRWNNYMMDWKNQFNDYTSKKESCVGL
Chain of α-glucosidase (P53341 whole entry): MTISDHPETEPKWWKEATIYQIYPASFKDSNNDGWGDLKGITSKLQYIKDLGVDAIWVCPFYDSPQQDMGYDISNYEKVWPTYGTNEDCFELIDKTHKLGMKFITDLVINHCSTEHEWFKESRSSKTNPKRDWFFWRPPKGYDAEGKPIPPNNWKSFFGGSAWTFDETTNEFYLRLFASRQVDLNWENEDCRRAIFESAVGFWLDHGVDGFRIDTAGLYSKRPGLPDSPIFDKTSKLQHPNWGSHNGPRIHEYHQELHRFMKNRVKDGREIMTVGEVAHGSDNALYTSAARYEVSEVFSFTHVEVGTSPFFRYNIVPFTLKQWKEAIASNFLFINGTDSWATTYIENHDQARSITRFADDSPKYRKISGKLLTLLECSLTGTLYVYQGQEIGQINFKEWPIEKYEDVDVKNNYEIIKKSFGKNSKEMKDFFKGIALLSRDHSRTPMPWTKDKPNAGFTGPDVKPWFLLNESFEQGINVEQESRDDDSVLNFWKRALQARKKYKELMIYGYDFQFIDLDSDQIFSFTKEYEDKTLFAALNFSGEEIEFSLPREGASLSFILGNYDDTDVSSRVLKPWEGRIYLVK

`COc1ccc(Cl)cc1NC(=O)CSc1nnc(C2CCCN(S(=O)(=O)c3ccccc3)C2)o1` (stereo not shown) [7i, N-(5-Chloro-2-methoxyphenyl)-2-{5-[1-(phenylsulfonyl)piperidin-3-yl]-1,3,4-oxadiazol-2-ylthio}acetamide]: the inhibition at 500 µM in experiment [1] stood at 38.81 ± 0.17%. For the same compound, on α-glucosidase, the “activity against α-glucosidase enzyme (in words)” value is reported as “second most active”.
Turning to `COc1ccccc1NC(=O)CSc1nnc(C2CCCN(S(=O)(=O)c3ccccc3)C2)o1` (stereo not shown) [7q, N-(2-Methoxyphenyl)-2-{5-[1-(phenylsulfonyl)piperidin-3-yl]-1,3,4-oxadiazol-2-ylthio}acetamide], the inhibition at 500 µM in experiment [1] was determined as 36.32 ± 0.16%.
For `CCOc1ccccc1NC(=O)CSc1nnc(C2CCCN(S(=O)(=O)c3ccccc3)C2)o1` (stereo not shown) [7n, N-(2-Ethoxyphenyl)-2-{5-[1-(phenylsulfonyl)piperidin-3-yl]-1,3,4-oxadiazol-2-ylthio}acetamide], the inhibition at 500 µM in experiment [1] is 43.72 ± 0.15%.
On to `Cc1cccc(C)c1NC(=O)CSc1nnc(C2CCCN(S(=O)(=O)c3ccccc3)C2)o1` (stereo not shown) [7d, N-(2,6-Dimethylphenyl)-2-{5-[1-(phenylsulfonyl)piperidin-3-yl]-1,3,4-oxadiazol-2-ylthio}acetamide], for which the inhibition at 500 µM in experiment [1] was 48.51 ± 0.15%. Moreover, the “activity against α-glucosidase enzyme (in words)” value at α-glucosidase is given as “least activity”.
With `O=C(CSc1nnc(C2CCCN(S(=O)(=O)c3ccccc3)C2)o1)NCCc1ccccc1` (stereo not shown) [7j, N-Phenethyl-2-{5-[1-(phenylsulfonyl)piperidin-3-yl]-1,3,4-oxadiazol-2-ylthio}acetamide], in experiment [1], the IC50 came out at 12.15 ± 0.09 µM, the “activity against BChE enzyme (in words)” value is reported as “highest inhibition potential; also recorded: most active” and the inhibition at 500 µM was 97.93 ± 0.38%.
Consider `CCc1cccc(C)c1NC(=O)CSc1nnc(C2CCCN(S(=O)(=O)c3ccccc3)C2)o1` (stereo not shown) [7o, N-(2-Ethyl-6-methylphenyl)-2-{5-[1-(phenylsulfonyl)piperidin-3-yl]-1,3,4-oxadiazol-2-ylthio}acetamide], for which, in experiment [1], the inhibition at 500 µM worked out at 38.31 ± 0.29%.
In the case of `O=C(CSc1nnc(C2CCCN(S(=O)(=O)c3ccccc3)C2)o1)NCc1ccccc1` (stereo not shown) [7r, N-Benzyl-2-{5-[1-(phenylsulfonyl)piperidin-3-yl]-1,3,4-oxadiazol-2-ylthio}acetamide], the inhibition at 500 µM in experiment [1] is 37.7 ± 0.48%. The “activity against α-glucosidase enzyme (in words)” value at α-glucosidase is on record as “least activity”.
In the case of `Cc1cc(C)cc(NC(=O)CSc2nnc(C3CCCN(S(=O)(=O)c4ccccc4)C3)o2)c1` (stereo not shown) [7e, N-(3,5-Dimethylphenyl)-2-{5-[1-(phenylsulfonyl)piperidin-3-yl]-1,3,4-oxadiazol-2-ylthio}acetamide], in experiment [1], the IC50 came out at 375.4 ± 0.12 µM, the “activity against BChE enzyme (in words)” value is reported as “least active; also recorded: BChE inhibitors” and the inhibition at 500 µM was determined as 66.82 ± 0.32%. Further, at α-glucosidase, the “activity against α-glucosidase enzyme (in words)” value is on record as “most active; also recorded: comparable activity to that of reference”.
Turning to `Cc1cccc(NC(=O)CSc2nnc(C3CCCN(S(=O)(=O)c4ccccc4)C3)o2)c1C` (stereo not shown) [7a, N-(2,3-Dimethylphenyl)-2-{5-[1-(phenylsulfonyl)piperidin-3-yl]-1,3,4-oxadiazol-2-ylthio}acetamide], in experiment [1], half-maximal inhibition (IC50) required 284.5 ± 0.13 µM, the “activity against BChE enzyme (in words)” value was “least active; also recorded: BChE inhibitors” and the inhibition at 500 µM amounted to 75.32 ± 0.35%.
For the compound `COC(=O)c1ccccc1NC(=O)CSc1nnc(C2CCCN(S(=O)(=O)c3ccccc3)C2)o1` (stereo not shown) [7h, Methyl 2-(2-(5-(1-(Phenylsulfonyl)piperidin-3-yl)-1,3,4-oxadiazol-2-ylthio)acetamido)benzoate], the inhibition at 500 µM in experiment [1] is 35.52 ± 0.23%.
For `O=C(CSc1nnc(C2CCCN(S(=O)(=O)c3ccccc3)C2)o1)NC1CCCCC1` (stereo not shown) [7p, N-Cyclohexyl-2-{5-[1-(phenylsulfonyl)piperidin-3-yl]-1,3,4-oxadiazol-2-ylthio}acetamide], the inhibition at 500 µM in experiment [1] came to 26.5 ± 0.39%. The “activity against α-glucosidase enzyme (in words)” value on α-glucosidase is reported as “least activity”.
On to `C[C@H]1O[C@H](O[C@H]2[C@H](O)[C@@H](O)[C@@H](O[C@H]3[C@H](O)[C@@H](O)C(O)O[C@@H]3CO)O[C@@H]2CO)[C@H](O)[C@@H](O)[C@@H]1N[C@H]1C=C(CO)[C@@H](O)[C@H](O)[C@H]1O` (stereo partly shown) [acarbose, reference compound], for which, on α-glucosidase (0.5 mM, mean ± SEM, triplicate), the “α-glucosidase inhibition (%) at 0.5 mM” value is reported as 92.23±0.14^a %.
As to `CCc1ccccc1NC(=O)CSc1nnc(C2CCCN(S(=O)(=O)c3ccccc3)C2)o1` (stereo not shown) [7k, N-(2-Ethylphenyl)-2-{5-[1-(phenylsulfonyl)piperidin-3-yl]-1,3,4-oxadiazol-2-ylthio}acetamide], the inhibition at 500 µM in experiment [1] was 44.24 ± 0.32%. Besides, the “activity against α-glucosidase enzyme (in words)” value at α-glucosidase is reported as “least activity”.
In the case of `CCc1ccc(NC(=O)CSc2nnc(C3CCCN(S(=O)(=O)c4ccccc4)C3)o2)cc1` (stereo not shown) [7l, N-(4-Ethylphenyl)-2-{5-[1-(phenylsulfonyl)piperidin-3-yl]-1,3,4-oxadiazol-2-ylthio}acetamide], in experiment [1], half-maximal inhibition (IC50) required 274.6 ± 0.13 µM, the “activity against BChE enzyme (in words)” value was “least active; also recorded: BChE inhibitors” and the inhibition at 500 µM turned out to be 93.71 ± 0.28%.
Regarding `Cc1ccc(NC(=O)CSc2nnc(C3CCCN(S(=O)(=O)c4ccccc4)C3)o2)cc1` (stereo not shown) [7g, 2-{5-[1-(Phenylsulfonyl)piperidin-3-yl]-1,3,4-oxadiazol-2-ylthio}-N-p-tolylacetamide], in experiment [1], the inhibition at 500 µM is 46.75 ± 0.18%.
Same read-out and setting: in the case of `Cc1ccc(C)c(NC(=O)CSc2nnc(C3CCCN(S(=O)(=O)c4ccccc4)C3)o2)c1` (stereo not shown) [7c, N-(2,5-Dimethylphenyl)-2-{5-[1-(phenylsulfonyl)piperidin-3-yl]-1,3,4-oxadiazol-2-ylthio}acetamide] it was 40.76 ± 0.27%.
For `Cc1cccc([N+](=O)[O-])c1NC(=O)CSc1nnc(C2CCCN(S(=O)(=O)c3ccccc3)C2)o1` (stereo not shown) [7s, N-(2-Methyl-6-nitrophenyl)-2-{5-[1-(phenylsulfonyl)piperidin-3-yl]-1,3,4-oxadiazol-2-ylthio}acetamide], in experiment [1], it took 123.3 ± 0.15 µM to reach half-maximal inhibition (IC50), the “activity against BChE enzyme (in words)” value is on record as “moderately high inhibition potential” and the inhibition at 500 µM worked out at 67.19 ± 0.39%.
`Cc1ccccc1NC(=O)CSc1nnc(C2CCCN(S(=O)(=O)c3ccccc3)C2)o1` (stereo not shown) [7f, 2-{5-[1-(Phenylsulfonyl)piperidin-3-yl]-1,3,4-oxadiazol-2-ylthio}-N-o-tolylacetamide]: the inhibition at 500 µM in experiment [1] is 47.23 ± 0.14%.
For the compound `Cc1ccc(NC(=O)CSc2nnc(C3CCCN(S(=O)(=O)c4ccccc4)C3)o2)c(C)c1` (stereo not shown) [7b, N-(2,4-Dimethylphenyl)-2-{5-[1-(phenylsulfonyl)piperidin-3-yl]-1,3,4-oxadiazol-2-ylthio}acetamide], in experiment [1], the midpoint of inhibition, the IC50, lay at 283.3 ± 0.17 µM; the “activity against BChE enzyme (in words)” value was “least active; also recorded: BChE inhibitors”; the inhibition at 500 µM was determined as 76.51 ± 0.44%.
With `CCOc1ccc(NC(=O)CSc2nnc(C3CCCN(S(=O)(=O)c4ccccc4)C3)o2)cc1` (stereo not shown) [7m, N-(4-Ethoxyphenyl)-2-{5-[1-(phenylsulfonyl)piperidin-3-yl]-1,3,4-oxadiazol-2-ylthio}acetamide], in experiment [1], it took 328.1 ± 0.18 µM to reach half-maximal inhibition (IC50), the “activity against BChE enzyme (in words)” value was “least active; also recorded: BChE inhibitors” and the inhibition at 500 µM was 72.41 ± 0.17%.
